From paper PMC9597353, “Mitoguardin-2–mediated lipid transfer preserves mitochondrial morphology and lipid droplet formation” (The Journal of Cell Biology, 2022)
Numbering of substitutions follows the chain as printed.

Legend:
hMIGA2C = biological target: T1, hMIGA2C (Homo sapiens, UniProt Q7L4E1); assay: end-point lipid transfer between tethered liposomes; type: biochemical; conditions: labelled compound; 0.32 µM protein, 2% NBD-lipid in donor liposomes, 30 min
T1 construct: gene MIGA2; C-terminal domain only, residues 306-593, C-terminal His6 kept, expressed in E. coli BL21(DE3); monomer by SEC
T1 sequence (Q7L4E1 306-593): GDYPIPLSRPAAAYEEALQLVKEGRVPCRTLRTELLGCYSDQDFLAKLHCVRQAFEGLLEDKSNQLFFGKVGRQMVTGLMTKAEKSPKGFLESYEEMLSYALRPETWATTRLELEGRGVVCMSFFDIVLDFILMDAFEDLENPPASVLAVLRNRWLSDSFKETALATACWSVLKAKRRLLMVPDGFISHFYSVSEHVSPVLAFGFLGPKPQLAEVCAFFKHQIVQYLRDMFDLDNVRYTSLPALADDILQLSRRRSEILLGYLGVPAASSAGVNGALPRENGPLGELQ

hMIGA2long [1] = biological target: T2, hMIGA2long (Homo sapiens, UniProt Q7L4E1); assay: native PAGE co-migration, NBD fluorescence; type: binding; conditions: labelled compound; on ice 2 h
T2 construct: gene MIGA2; N-terminal 3xFLAG (Expi293F) and/or C-terminal His6 (E. coli), tags kept; dimer
T2 sequence (Q7L4E1 170-593): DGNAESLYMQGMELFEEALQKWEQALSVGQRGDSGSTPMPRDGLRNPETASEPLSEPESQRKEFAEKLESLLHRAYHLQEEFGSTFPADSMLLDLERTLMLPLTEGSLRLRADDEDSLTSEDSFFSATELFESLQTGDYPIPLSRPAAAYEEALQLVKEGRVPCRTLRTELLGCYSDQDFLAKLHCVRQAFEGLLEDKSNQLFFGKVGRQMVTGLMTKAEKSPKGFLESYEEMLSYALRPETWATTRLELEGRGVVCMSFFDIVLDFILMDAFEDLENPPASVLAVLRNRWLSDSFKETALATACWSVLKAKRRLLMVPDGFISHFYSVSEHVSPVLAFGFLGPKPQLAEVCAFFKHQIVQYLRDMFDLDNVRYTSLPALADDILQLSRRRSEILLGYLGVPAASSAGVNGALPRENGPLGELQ

hMIGA2long [2] = biological target: T3, hMIGA2long (Homo sapiens, UniProt Q7L4E1, V376D/L438E/F495H/I528K); assay: FRET lipid transfer between tethered liposomes; type: biochemical; conditions: labelled compound; 0.25 µM protein, 30°C; mutant M1, 3xFLAG and His6 tags
T3 construct: gene MIGA2; N-terminal 3xFLAG (Expi293F) and/or C-terminal His6 (E. coli), tags kept; dimer
T3 sequence (Q7L4E1 170-593 V376D/L438E/F495H/I528K): T2 sequence (Q7L4E1 170-593) with V207D, L269E, F326H, I359K

hMIGA2long [3] = biological target: T4, hMIGA2long (Homo sapiens, UniProt Q7L4E1, R357N/S428G); assay: FRET lipid transfer between tethered liposomes; type: biochemical; conditions: labelled compound; 0.25 µM protein, 30°C; mutant M3, 3xFLAG and His6 tags
T4 construct: gene MIGA2; N-terminal 3xFLAG (Expi293F) and/or C-terminal His6 (E. coli), tags kept; dimer
T4 sequence (Q7L4E1 170-593 R357N/S428G): T2 sequence (Q7L4E1 170-593) with R188N, S259G

hMIGA2long [4] = biological target: T5, hMIGA2long (Homo sapiens, UniProt Q7L4E1, V381E/V502K/L506D/F524H); assay: FRET lipid transfer between tethered liposomes; type: biochemical; conditions: labelled compound; 0.25 µM protein, 30°C; mutant M2, 3xFLAG and His6 tags
T5 construct: gene MIGA2; N-terminal 3xFLAG (Expi293F) and/or C-terminal His6 (E. coli), tags kept; dimer
T5 sequence (Q7L4E1 170-593 V381E/V502K/L506D/F524H): T2 sequence (Q7L4E1 170-593) with V212E, V333K, L337D, F355H

hMIGA2long [5] = biological target: T2, hMIGA2long; assay: FRET lipid transfer between tethered liposomes; type: biochemical; conditions: labelled compound; 0.25 µM protein, 2% NBD-lipid in donor liposomes, 30°C
[6] = biological target: human MIGA2 cytosolic fragment with part of the linker region (coiled-coil) and the C-terminal domain, C-terminal 6xhis (human) (UniProt Q7L4E1); assay: native MS; 200 mM ammonium acetate, 2 mM DTT; protein 1-5 μM; Q Exactive UHMR
[7] = biological target: the molecule itself; assay: SEC; Superdex 200 16/60, with size standards

CCCCCCCC/C=C\CCCCCCCC(=O)OC[C@H](COP(=O)(O)O)OC(=O)CCCCCCCCCCCNc1ccc([N+](=O)[O-])c2nonc12 [NBD-PAacyl] was tested, and the “end-point lipid transfer between tethered liposomes” value (hMIGA2C) was “Both hMIGA2long and hMIGA2C transport NBD-PEacyl, -PSacyl, -PAacyl, and NBD-PCacyl” and the “native PAGE co-migration, NBD fluorescence” value (“native PAGE co-migration” below) (hMIGA2long [1]) was “Phospholipids (NBD-PAacyl, NBD-PCacyl NBD-PShead, NBD-PEacyl) visualized by their fluorescence, comigrated with protein”.

For CCCCCCCC/C=C\CCCCCCCC(=O)OC[C@H](COP(=O)([O-])OCC[N+](C)(C)C)OC(=O)CCCCCCCCCCCNc1ccc([N+](=O)[O-])c2nonc12 [NBD-PCacyl], the “end-point lipid transfer between tethered liposomes” value (hMIGA2C) was “Both hMIGA2long and hMIGA2C transport NBD-PEacyl, -PSacyl, -PAacyl, and NBD-PCacyl” and the “native PAGE co-migration” value (hMIGA2long [1]) was “Phospholipids (NBD-PAacyl, NBD-PCacyl NBD-PShead, NBD-PEacyl) visualized by their fluorescence, comigrated with protein”.

For CCCCCCCC/C=C\CCCCCCCC(=O)OC[C@H](COP(=O)(O)OCCN)OC(=O)CCCCCCCCCCCNc1ccc([N+](=O)[O-])c2nonc12 [NBD-PEacyl], the “end-point lipid transfer between tethered liposomes” value (hMIGA2C) was “Both hMIGA2long and hMIGA2C transport NBD-PEacyl, -PSacyl, -PAacyl, and NBD-PCacyl”, the lipid transfer impaired (hMIGA2long [2]) was “all three mutant constructs (M1, M2, M3) are lipid transfer impaired” and the lipid transfer impaired (hMIGA2long [3]) was “all three mutant constructs (M1, M2, M3) are lipid transfer impaired”. The “native PAGE co-migration” value (hMIGA2long [1]) was “Phospholipids (NBD-PAacyl, NBD-PCacyl NBD-PShead, NBD-PEacyl) visualized by their fluorescence, comigrated with protein” and the lipid transfer impaired (hMIGA2long [4]) was “all three mutant constructs (M1, M2, M3) are lipid transfer impaired”.

CCCCCCCC/C=C\CCCCCCCC(=O)OC[C@H](COP(=O)(O)OC[C@H](N)C(=O)O)OC(=O)CCCCCCCCCCCNc1ccc([N+](=O)[O-])c2nonc12 [NBD-PSacyl] was tested, and the “FRET lipid transfer between tethered liposomes” value (hMIGA2long [5]) was “hMIGA2long can transport NBD-PSacyl, NBD-PAacyl, NBD-PEacyl, and NBD-PCacyl” and the “end-point lipid transfer between tethered liposomes” value (hMIGA2C) was “Both hMIGA2long and hMIGA2C transport NBD-PEacyl, -PSacyl, -PAacyl, and NBD-PCacyl”.

For CCCCCCCC/C=C\CCCCCCCC(=O)OC[C@H](COP(=O)(O)OC[C@H](Nc1ccc([N+](=O)[O-])c2nonc12)C(=O)O)OC(=O)CCCCCCC/C=C\CCCCCCCC [NBD-PShead], the “native PAGE co-migration” value (hMIGA2long [1]) was “Phospholipids (NBD-PAacyl, NBD-PCacyl NBD-PShead, NBD-PEacyl) visualized by their fluorescence, comigrated with protein”.

In the case of “human MIGA2 cytosolic fragment with part of the linker region (coiled-coil) and the C-terminal domain, C-terminal 6xhis (from UniProt Q7L4E1 170-593) (domain or fragment)”, the stoichiometry N [6] is reported as 2.

B1: C. elegans MIGA2 cytosolic fragment with the coiled-coil of the linker region and the C-terminal domain (residues 106-496) (domain or fragment, UniProt Q21096 106-496, looked up)
chain: SMNPIEADITSGQELCTELRKTIEKVHHNLEMVKNRSSKDMERSIKIEGILKGLKQVEDEIVLLVPQMEDFRDDNMEFYSVSGGSGYAGSVRTGRSRTLSVLSDDSFRSAVEEFACDIDDIDFVSDAANLDKNELRFLDEGMQAALNGEVKYRKSRMEFCKCDSETDFAAKLYCVRQALTNALKDEHKRVWLAKCGRTLLADFIRHTKQDPVKFFNAYDEMLEYVSNDRNEEQLRQDVEGRGVCETGFYDVAIDFIILDAFEDLKSPPSAVYSVTKNYFMSMSMKYSTLNTIIWSIIKSKRQRLKNPDGFIAKFYNISETVMPAITLGFLGTDERLGELCQYFKEQVVQFVLDVFNTQKVCYRSLEEMSEDVWIVMRNRLEAVQTRMSNEL
notes: C. elegans MIGA (mitoguardin homolog), Uniprot Q21096, residues 106-496: coiled-coil segment of the linker region and the C-terminal domain; Co-purifies with glycerophospholipid from E. coli; Plasmids of the study are in Addgene (192832, 192833, 192834, 192835, 192837, 192866, 192867); also called CeMIGA2_(long); CeMIGA_(long); source: E. coli C43 (DE3), purified (Ni-NTA, sumo protease, second …)
With B1 the “stoichiometry N” value [7] was 2.
